Test results: patent publication US20230286958A1, “PLASMA KALLIKREIN INHIBITORS” (Merck Sharp & Dohme LLC, priority 2020, published 2023)
pIC50: −log10 of the molar value.

Columns and labels:
human Factor XIa = human Factor XIa (Homo sapiens (Human), UniProt P03951); assay: Factor XIa Assay (fluorogenic substrate GPR-AFC); format: biochemical; details: Factor XIa (FXIa)
Human plasma kallikrein = Human plasma kallikrein (Homo sapiens (Human), UniProt P03952); assay: Kallikrein Assay (fluorogenic substrate Acetyl-K-P-R-AFC); format: biochemical; details: Plasma Kallikrein (PKal)
Procedure, shortened: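 Ki is derived from IC50 with the Cheng-Prusoff equation, and IC50 from the inflection point of a four-parameter logistic curve. The rate of AFC release is read with 0.5 nM purified enzyme and […] substrate at room temperature or 37 °C.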

human Factor XIa, sequence (P03951 388-625 limits assumed): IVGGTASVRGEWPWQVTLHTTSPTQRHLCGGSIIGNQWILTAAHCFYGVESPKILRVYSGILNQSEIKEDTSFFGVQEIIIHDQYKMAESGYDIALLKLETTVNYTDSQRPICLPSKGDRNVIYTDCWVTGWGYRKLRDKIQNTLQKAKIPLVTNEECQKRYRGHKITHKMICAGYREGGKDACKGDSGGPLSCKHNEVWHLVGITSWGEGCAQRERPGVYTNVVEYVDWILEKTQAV
human Factor XIa, sequence (P03951 19-387 partner limits assumed): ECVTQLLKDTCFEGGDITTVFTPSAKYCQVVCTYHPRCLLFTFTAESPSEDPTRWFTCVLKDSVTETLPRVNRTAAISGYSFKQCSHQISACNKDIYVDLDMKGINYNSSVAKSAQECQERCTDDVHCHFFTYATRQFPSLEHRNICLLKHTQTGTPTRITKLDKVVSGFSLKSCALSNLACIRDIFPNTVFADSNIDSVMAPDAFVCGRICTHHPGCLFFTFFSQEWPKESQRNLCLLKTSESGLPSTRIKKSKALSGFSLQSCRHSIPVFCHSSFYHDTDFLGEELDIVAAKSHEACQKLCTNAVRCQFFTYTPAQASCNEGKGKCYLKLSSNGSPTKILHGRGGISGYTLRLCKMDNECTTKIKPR
Human plasma kallikrein, sequence (P03952 391-638): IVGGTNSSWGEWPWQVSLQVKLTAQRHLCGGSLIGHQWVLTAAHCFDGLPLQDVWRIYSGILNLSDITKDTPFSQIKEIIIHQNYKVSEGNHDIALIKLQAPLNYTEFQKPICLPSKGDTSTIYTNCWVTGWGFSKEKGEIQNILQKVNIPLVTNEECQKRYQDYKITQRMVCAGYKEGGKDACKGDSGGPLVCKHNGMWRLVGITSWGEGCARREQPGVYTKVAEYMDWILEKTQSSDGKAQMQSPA
Human plasma kallikrein, sequence (P03952 20-390 partner): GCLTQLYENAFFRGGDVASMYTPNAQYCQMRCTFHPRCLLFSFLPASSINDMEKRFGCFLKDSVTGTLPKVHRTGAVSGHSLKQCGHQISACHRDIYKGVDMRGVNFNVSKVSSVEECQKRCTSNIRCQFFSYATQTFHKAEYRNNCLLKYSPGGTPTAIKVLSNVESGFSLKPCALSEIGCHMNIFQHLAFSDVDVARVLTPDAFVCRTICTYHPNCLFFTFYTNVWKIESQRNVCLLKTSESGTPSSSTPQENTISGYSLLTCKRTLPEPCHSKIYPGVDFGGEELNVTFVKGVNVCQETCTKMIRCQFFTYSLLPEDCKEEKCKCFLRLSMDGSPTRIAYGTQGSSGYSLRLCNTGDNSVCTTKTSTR

| Compound | pIC50 (human Factor XIa) | pIC50 (Human plasma kallikrein) |
| --- | --- | --- |
| CC(c1cnc(N2C[C@H]3C[C@H]3C2=O)c2c1OCO2)n1cc(NC(=O)c2cncc(-c3c(C(F)F)ccc(Cl)c3F)n2)cn1 (single isomer, unassigned) [Example 251, 6-(3-Chloro-6-(difluoromethyl)-2-fluorophenyl)-N-(1-((R or S)-1-(4-((1R,5S)-2-oxo-3-azabicyclo[3.1.0]hexan-3-yl)-[1,3]dioxolo[4,5-c]pyridin-7-yl)ethyl)-1H-pyrazol-4-yl)pyrazine-2-carboxamide] | 5.61 | 9.00 |
| Cc1ncc(-c2c(OC(F)F)ccc(Cl)c2F)nc1C(=O)Nc1cnn(C(C)c2cnc(N3C[C@H]4C[C@H]4C3=O)c(C)n2)c1 (single isomer, unassigned) [Example 124, 6-(3-Chloro-6-(difluoromethoxy)-2-fluorophenyl)-3-methyl-N-(1-((R or S)-1-(6-methyl-5-((1R,5S)-2-oxo-3-azabicyclo[3.1.0]hexan-3-yl)pyrazin-2-yl)ethyl)-1H-pyrazol-4-yl)pyrazine-2-carboxamide] | 6.02 | 9.22 |
| C[C@H](c1cnc(N2C[C@H]3C[C@H]3C2=O)nc1N)n1cc(NC(=O)c2cncc(-c3c(C(F)F)ccc(Cl)c3F)n2)cn1 [Example 170, N-(1-((R)-1-(4-Amino-2-((1R,5S)-2-oxo-3-azabicvclo[3.1.0]hexan-3-yl)pyrimidin-5-yl)ethyl)-1H-pyrazol-4-yl)-6-(3-chloro-6-(difluoromethyl)-2-fluorophenyl)pyrazine-2-carboxamide] | < 5.00 | 7.68 |
| Cc1cc(C(C)n2cc(NC(=O)c3nc(-c4c(C#N)ccc(Cl)c4F)cnc3C)cn2)cnc1N1C[C@H]2C[C@H]2C1=O (single isomer, unassigned) [Example 139, 6-(3-Chloro-6-cyano-2-fluorophenyl)-3-methyl-N-(1-((S or R)-1-(5-methyl-6-((1R,5S)-2-oxo-3-azabicyclo[3.1.0]hexan-3-yl)pyridin-3-yl)ethyl)-1H-pyrazol-4-yl)pyrazine-2-carboxamide] | 6.55 | 9.05 |
| CC(c1cnc(N2Cc3cccnc3C2=O)nc1)n1cc(NC(=O)c2cncc(-c3c(C(F)F)ccc(Cl)c3F)n2)cn1 (racemic) [Example 26, (S and R)-6-(3-Chloro-6-(difluoromethyl)-2-fluorophenyl)-N-(1-(1-(2-(7-oxo-5,7-dihydro-6H-pyrrolo[3,4-b]pyridin-6-yl)pyrimidin-5-yl)ethyl)-1H-pyrazol-4-yl)pyrazine-2-carboxamide] | < 5.00 | 8.21 |
| Cc1cc(C(C)n2cc(NC(=O)c3nc(-c4c(C#N)ccc(Cl)c4F)cnc3C)cn2)nnc1N1C[C@H]2C[C@H]2C1=O (single isomer, unassigned) [Example 236, 6-(3-Chloro-6-cyano-2-fluorophenyl)-3-methyl-N-(1-((R or S)-1-(5-methyl-6-((1R,5S)-2-oxo-3-azabicyclo[3.1.0]hexan-3-yl)pyridazin-3-yl)ethyl)-1H-pyrazol-4-yl)pyrazine-2-carboxamide] | 6.12 | 9.15 |
| Cc1c(C(CO)n2cc(NC(=O)c3cncc(-c4c(C(F)F)ccc(Cl)c4F)n3)cn2)cnc(N2C[C@H]3C[C@H]3C2=O)c1C (single isomer, unassigned) [Example 168, 6-(3-Chloro-6-(difluoromethyl)-2-fluorophenyl)-N-(1-((S or R)-1-(4,5-dimethyl-6-((1R,5S)-2-oxo-3-azabicyclo[3.1.0]hexan-3-yl)pyridin-3-yl)-2-hydroxyethyl)-1H-pyrazol-4-yl)pyrazine-2-carboxamide] | 6.58 | 9.40 |
| CCc1nc(C(C)n2cc(NC(=O)c3cncc(-c4c(C(F)F)ccc(Cl)c4F)n3)cn2)cnc1N1C[C@H]2C[C@H]2C1=O (single isomer, unassigned) [Example 55, 6-(3-Chloro-6-(difluoromethyl)-2-fluorophenyl)-N-(1-((S or R)-1-(6-ethyl-5-((1R,5S)-2-oxo-3-azabicyclo[3.1.0]hexan-3-yl)pyrazin-2-yl)ethyl)-1H-pyrazol-4-yl)pyrazine-2-carboxamide] | 5.27 | 8.24 |
| Cc1cc(C(C)n2cc(NC(=O)c3nc(-c4c(C(F)F)ccc(Cl)c4F)cnc3C(C)O)cn2)cnc1N1C[C@H]2C[C@H]2C1=O (single isomer, unassigned) [Example 212, 6-(3-Chloro-6-(difluoromethyl)-2-fluorophenyl)-3-((S or R)-1-hydroxyethyl)-N-(1-((R or S)-1-(5-methyl-6-((1R,5S)-2-oxo-3-azabicyclo[3.1.0]hexan-3-yl)pyridin-3-yl)ethyl)-1H-pyrazol-4-yl)pyrazine-2-carboxamide] | 6.45 | 9.00 |
| Cc1ncc(-c2c(C(F)F)ccc(Cl)c2F)nc1C(=O)Nc1cnn(C(C)c2cnc(N3C[C@H]4C[C@H]4C3=O)c(Cl)c2)c1 (stereo partly drawn) [Example 92, N-(1-((S)-1-(5-chloro-6-((1R,5S)-2-oxo-3-azabicyclo[3.1.0]hexan-3-yl)pyridin-3-yl)ethyl)-1H-pyrazol-4-yl)-6-(3-chloro-6-(difluoromethyl)-2-fluorophenyl)-3-methylpyrazine-2-carboxamide] | 6.24 | 8.89 |
| CCc1ncc(-c2c(C(F)F)ccc(Cl)c2F)nc1C(=O)Nc1cnn(C(C)c2cnc(N3C[C@H]4C[C@H]4C3=O)c(C)c2)c1 (mixture of isomers) [Example 214, 6-(3-Chloro-6-(difluoromethyl)-2-fluorophenyl)-3-ethyl-N-(1-((S and R)-1-(5-methyl-6-((1R,5S)-2-oxo-3-azabicyclo[3.1.0]hexan-3-yl)pyridin-3-yl)ethyl)-1H-pyrazol-4-yl)pyrazine-2-carboxamide] | 6.03 | 8.92 |
| CC(c1cnc(N2C[C@H]3C[C@H]3C2=O)c2c1OCO2)n1cc(NC(=O)c2cncc(-c3c(C(F)F)ccc(Cl)c3F)n2)cn1 (single isomer, unassigned) [Example 250, 6-(3-Chloro-6-(difluoromethyl)-2-fluorophenyl)-N-(1-((R or S)-1-(4-((1R,5S)-2-oxo-3-azabicyclo[3.1.0]hexan-3-yl)-[1,3]dioxolo[4,5-c]pyridin-7-yl)ethyl)-1H-pyrazol-4-yl)pyrazine-2-carboxamide] | 5.88 | 8.49 |
| Cc1c(C(CO)n2cc(NC(=O)c3cncc(-c4c(C(F)F)ccc(Cl)c4F)n3)cn2)cnc(N2C[C@H]3C[C@H]3C2=O)c1C (single isomer, unassigned) [Example 167, 6-(3-Chloro-6-(difluoromethyl)-2-fluorophenyl)-N-(1-([R or S)-1-(4,5-dimethyl-6-((1R,5S)-2-oxo-3-azabicyclo[3.1.0]hexan-3-yl)pyridin-3-yl)-2-hydroxyethyl)-1H-pyrazol-4-yl)pyrazine-2-carboxamide] | 5.44 | 7.98 |
| Cc1c(C(C)n2cc(NC(=O)c3cncc(-c4c(C(F)F)ccc(Cl)c4F)n3)cn2)cnc(N2C[C@H]3C[C@H]3C2=O)c1C (single isomer, unassigned) [Example 152, 6-(3-Chloro-6-(difluoromethyl)-2-fluorophenyl)-N-(1-((R or S)-1-(4,5-dimethyl-6-((1R,5S)-2-oxo-3-azabicyclo[3.1.0]hexan-3-yl)pyridin-3-yl)ethyl)-1H-pyrazol-4-yl)pyrazine-2-carboxamide] | 6.71 | 9.52 |
| CC(c1cnc(N2C[C@H]3C[C@H]3C2=O)c(F)c1)n1cc(NC(=O)c2nc(-c3c(C(F)F)ccc(Cl)c3F)cnc2CO)cn1 (single isomer, unassigned) [Example 206, 6-(3-Chloro-6-(difluoromethyl)-2-fluorophenyl)-N-(1-((R or S)-1-(5-fluoro-6-((1R,5S)-2-oxo-3-azabicyclo[3.1.0]hexan-3-yl)pyridin-3-yl)ethyl)-1H-pyrazol-4-yl)-3-(hydroxymethyl)pyrazine-2-carboxamide] | 6.92 | 9.52 |
| COCc1ncc(-c2c(C(F)F)ccc(Cl)c2F)nc1C(=O)Nc1cnn([C@@H](C)c2cnc(N3C[C@H]4C[C@H]4C3=O)nc2)c1 [Example 175, 6-(3-Chloro-6-(difluoromethyl)-2-fluorophenyl)-3-(methoxymethy-((S)-1-(2-((1R,5S)-2-oxo-3-azabicyclo[3.1.0]hexan-3-yl)pyrimidin-5-yl)ethyl)-1H-pyrazol-4-yl)pyrazine-2-carboxamide] | 5.43 | 8.52 |
| Cc1nc(C(C)n2cc(NC(=O)c3nc(-c4c(C(F)F)ccc(Cl)c4F)cnc3C(F)F)cn2)cnc1N1C[C@H]2C[C@H]2C1=O (single isomer, unassigned) [Example 100, 6-(3-Chloro-6-(difluoromethyl)-2-fluorophenyl)-3-(difluoromethyl)-N-(1-((S or R)-1-(6-methyl-5-((1R,5S)-2-oxo-3-azabicyclo[3.1.0]hexan-3-yl)pyrazin-2-yl)ethyl)-1H-pyrazol-4-yl)pyrazine-2-carboxamide] | 5.70 | 8.77 |
| C[C@@H](c1cnc(N2C[C@H]3C[C@H]3C2=O)nc1)n1cc(NC(=O)c2nc(-c3c(C(F)F)ccc(Cl)c3F)cnc2CC(C)(C)O)cn1 [Example 180] | 5.31 | 8.11 |
| Cc1ncc(-c2c(OC(F)F)ccc(Cl)c2F)nc1C(=O)Nc1cnn(C(C)c2cnc(N3C[C@H]4C[C@H]4C3=O)c(F)c2C)c1 (single isomer, unassigned) [Example 130, 6-(3-Chloro-6-(difluoromethoxy)-2-fluorophenyl)-N-(1-((R or S)-1-(5-fluoro-4-methyl-6-((1R,5S)-2-oxo-3-azabicyclo[3.1.0]hexan-3-yl)pyridin-3-yl)ethyl)-1H-pyrazol-4-yl)-3-methylpyrazine-2-carboxamide] | 6.26 | 9.10 |
| CC(c1ccc(N2C[C@H]3C[C@H]3C2=O)nc1)n1cc(NC(=O)c2cncc(-c3c(C#N)ccc(Cl)c3F)n2)cn1 (single isomer, unassigned) [Example 89, 6-(3-Chloro-6-cyano-2-fluorophenyl)-N-(1-((S or R)-1-(6-((1R,5S)-2-oxo-3-azabicyclo[3.1.0]hexan-3-yl)pyridin-3-yl)ethyl)-1H-pyrazol-4-yl)pyrazine-2-carboxamide] | < 5.00 | 7.50 |
